The source of these data is patent US8501911B2, “Methods of reducing inflammation and mucus hypersecretion” (Biomarck Pharmaceuticals, Ltd, priority 1999, dated 2013).

One series relates to NHBE cells. Nature of the series: Mucin secretion from NHBE cells exposed to kinase activators/reagents alone (ELISA). Format: cell-based, human. The following applies: 15 min. As for the experimental part:
To determine the potential role of PKC and/or PKG in the mucin secretory process, NHBE cells were exposed to the following two specific protein kinase activators: the phorbol ester, phorbol 12-myristate 13-acetate (PMA), for activation of PKC, and the nonhydrolyzable cGMP analogue, 8-Br-cGMP, for activation of PKG.
NHBE Cell Culture—Expansion, cryopreservation, and culture of NHBE cells in the air/liquid interface were performed as described previously. See, Krunkosky et al. Briefly, NHBE cells (Clonetics, San Diego, Calif.) were seeded in vented T75 tissue culture flasks (500 cells/cm^2) and cultured until cells reached 75-80% confluence. Cells were then dissociated by trypsin/EDTA and frozen as passage-2. Air/liquid interface culture was initiated by seeding passage-2 cells (2×10^4 cells/cm^2) in […]® clear culture inserts (Costar, Cambridge, Mass.) that were thinly coated with rat tail collagen, type 1 (Collaborative Biomedical, Bedford, Mass.). Cells were cultured submerged in medium in a humidified 95% air, 5% CO2 environment for 5-7 days until nearly confluent. At that time, the air/liquid interface was created by removing the apical medium and feeding cells basalaterally. Medium was renewed daily thereafter. Cells were cultured for an additional 14 days to allow for full differentiation.
Measurement of Mucin Secretion by ELISA—Before collection of “base line” and “test” mucin samples, the accumulated mucus at the apical surface of the cells was removed by washing with phosphate-buffered saline, pH 7.2. To collect the base-line secretion, cells were incubated with medium alone, and secreted mucin in the apical medium was collected and reserved. Cells were rested for 24 h and then exposed to medium containing the selected stimulatory and/or inhibitory reagents (or appropriate controls), after which secreted mucin was collected and reserved as the test sample. Incubation times for the base line and the test were the same but varied depending on the test reagent utilized. Both base line and test secretions were analyzed by ELISA using an antibody capture method as known in the art. See, e.g., Harlow et al., Antibodies: A Laboratory Manual, pp. 570-573, Cold Spring Harbor Laboratory, Cold Spring Harbor, N.Y. (1988). The primary antibody for this assay was 17Q2 (Babco, Richmond, Calif.), a monoclonal antibody that reacts specifically with a carbohydrate epitope on human airway mucins. […] Wright et al., Am. J. Physiol. 271, L854-L861 (1996). Levels of mucin secretion were reported as percentage of the medium control.
Mucus secreted from the airway epithelial cells in vitro after stimulation by activators was assessed using an ELISA (antibody capture method) (E. Harlow, D. Lane. “Antibodies: A Laboratory Manual.” New York: Cold Spring Harbor Laboratory Press, 1988), wherein the collected mucus is bound directly to the ELISA plate. Mucus was detected using an antibody raised against monkey airway mucus (Lin et al. Am J Respir Cell Mol Biol 1:41, 1989).
(In an ELISA, binding on a coated surface is turned into a signal by an enzyme label.)

The test system of series [1] is MARCKS-related mucus secretion. Nature of the series: Inhibition of MARCKS-related mucus (mucin) secretion, Table 1. Format: cell-based. The following applies: at 100 μM of test peptide.
The subject of another series is HL-60 clone 15 cells. Nature of the series: Inhibition of eosinophil peroxidase (EPO) release from HL-60 clone 15 cells. Format: cell-based, human. The following applies: at 50 μM of test peptide; 100 nM PMA 2 hours. An excerpt: The human promyelocytic cell line (Fischkoff S A, Graded increase in probability of eosinophilic differentiation of HL-60 promyelocytic leukemia cells induced by culture under alkaline conditions. Leuk. Res., 12:679-686, 1988; Rosenberg H F, Ackerman S J, Tenen D G. Human eosinophil cationic protein: molecular cloning of a cytotoxin and helminthotoxin with ribonuclease activity. J. Exp. Med., 170:163-176, 1989), HL-60 clone 15, is eosinophil-like promyelocytic human cell line which was purchased from American Type Culture Collection (ATCC) Rockville, Md. (catalog #CRL-1964). The cells were maintained in medium consisting of RPMI 1640 with glutamine supplemented with 10% heat inactivated fetal bovine serum (Gibco, Carlsbad, Calif.), 50 IU/mL penicillin, 50 μg/mL streptomycin, and 25 mM HEPES buffer, pH 7.8 at 37° C. in an atmosphere containing 5% CO2. Final differentiation of an eosinophil-like phenotype was initiated by culturing the cells at 5×10^5 cells/mL in the above medium containing 0.5 mM butyric acid (Sigma-Aldrich) for 5 days as previously described by Tiffany H L, Li F, and Rosenberg H F, Hyperglycosylation of eosinophil ribonuclease in a promyelocytic leukemia cell line and in differentiated peripheral blood progenitor cells J. Leukoc. Biol. 58: 49-54, 1995; and by Tiffany H L, Alkhatib G, Combadiere C, Berger E A, and Murphy P M., CC Chemokine receptors are differentially regulated by IL-5 during maturation of eosinophilic HL-60 cells. J. Immunol. 160:1385-1392, 1998. The cells were washed and resuspended at 2.5×10^6 per mL in phenol free RPMI-1640 (Cellgro; Mediatech Inc.). Aliquots of cells in 15 mL plastic tubes were preincubated with indicated concentration of test peptide (dissolved in PBS, pH 7.0) for 10 minutes followed by treatment of the cells with 100 nM PMA for 2 hours. The reaction was terminated by placing the tubes on ice and centrifugation of cells at 400 g for 5 min at 4° C. The eosinophil peroxidase (EPO) activity released by HL-60 clone 15 cells was assayed using TMB according to a previously established technique Paige et al (see above) and by Lacy P, Mahmudi-Azer S, Bablitz B, Hagen S C, Velazquez J R, Man S F, Moqbel R. Rapid mobilization of intracellularly stored RANTES in response to interferon-gamma in human eosinophils. Blood 94:23-32, 1999. Briefly, add 50 μL aliquots of the supernatant to 96-well microtiter plate followed by addition of 100 μL of the tetramethylbenzidine (TMB) substrate solution and incubate at room temperature for 15 minutes. The reaction was terminated by addition of 50 μL of 1.0 M sulfuric acid and absorbance was read at 450 nm in a spectrophotometric microplate reader (Molecular Devices, Sunnyvale, Calif.). The amount of secreted EPO was expressed as percentage of total content using the amount obtained in the same number of triton X-100-lysed cells.
Because standard EPO from HL-60 clone 15 cells was not available to use for quantification, we measured both released and intracellular (from lysed cells) levels of EPO, and expressed the released EPO as a percentage of total (intracellular and released) for each. To measure intracellular EPO in HL-60 clone 15 cells, appropriate aliquots of 0.1% triton X-100-lysed cells were taken for quantification of intracellular EPO as described above. All data are expressed as percentage of control to minimize variability between cultures.

A further series relates to U937 cells. Nature of the series: Inhibition of lysozyme release from U937 cells. Format: cell-based, human. The following applies: at 50 μM of test peptide; 100 nM PMA. As for the experimental part: U937 is a monocyte-like human cell line which was purchased from American Type Culture Collection (ATCC) Rockville, Md. (catalog #CRL-15932). The cells were maintained in medium consisting of RPMI 1640 with glutamine supplemented with 10% heat inactivated fetal bovine serum (Gibco, Carlsbad, Calif.), 50 IU/mL, penicillin, 50 μg/mL streptomycin at 37° C. in an atmosphere containing 5% CO2. U937 cells were washed and resuspended at 2.5×10^6 cells/mL in phenol red free RPMI-1640 medium (Cellgro, Mediatech Inc.). Aliquots of cells in 15 mL plastic tubes were preincubated with indicated concentrations of test peptides (dissolved in PBS, pH 7.0) for 10 min at 37° C. The cells were then stimulated with 100 nM PMA for 1 hour. The cells were then centrifuged at 400×g for 5 min at 4° C. Lysozyme released from U937 cells was measured using spectrophotometric assay as described previously by Ralph et al., 1976. (Ralph P, Moore M A S, and Nilsson K. Lysozyme synthesis by established human and murine histocytic lymphoma cell lines. J. Exp. Med. 143:1528-33, 1976). Briefly. 100 μL of supernatants were placed in a 96-well microtiter plate and mixed with 100 μL of a Micrococcus lysodeikticus (Sigma-Aldrich) suspension (0.3 mg/mL in 0.1 M sodium phosphate buffer, pH 7.0), incubated for […] at room temperature and decrease in absorbance at 450 nm was measured. Chicken egg white lysozyme (EMD Biosciences) was used as a standard.

Series [2] can be described thus: Solubility in 0.5 N saline. Format: physicochemical. Particulars: in 0.5 N Saline at pH 6.5.
The test system of a further series is human neutrophils. Nature of the series: Human neutrophil chemotactic migration assay. The series is classed as cell-based. The following applies: test peptide 50 μM; for Neutrophil Migration (% Inhibition), LTB4: LTB4 100 nM; for Neutrophil Migration (% Inhibition), LTB4 / Neutrophil Migration (% Inhibition), fMLP: 0 = inactive; for Neutrophil Migration (% Inhibition), PAF: PAF 100 nM; for Neutrophil Migration (% Inhibition), fMLP: fMLP 100 nM. As for the experimental part:
Human neutrophils were isolated from heparinized whole blood collected from healthy adult donors via cephalic venipuncture by a slightly modified method as described by Akasaki et al., 1999 (Akasaki T, Koga H, and Sumimoto H., Phosphoinositide 3-kinase-dependent and -independent activation of the small GTPase Rac2 in human neutrophils, J. Biol. Chem. 274:18055-18059, 1999). The blood was mixed with dextran (final concentration 1.4% dextran) and then allowed to settle for 60 minutes, after which time the leukocyte rich plasma was collected and layered onto 5 mL of Ficoll-Paque PLUS in 15 ml, conical tubes. The plasma was centrifuged at 1800 rpm for 20 minutes at room temperature. The residual erythrocytes were lysed utilizing a hypotonic saline and the remaining neutrophils were re-suspended in Hank's balanced salt solution containing 20 mM HEPES and 8.9 mM sodium bicarbonate without calcium or magnesium (HBSS), yielding neutrophils that were greater than 98% pure and greater than 99% viable.
Neutrophil migration assay was performed according to the method described by Frevert C W, Wong V A, Goodman R B, Goodwin R, and Martin T R., Rapid fluorescence-based measurement of neutrophil migration in vitro, J. Immunol. Methods, 213:41-52, 1998. Human neutrophils were labeled with the fluorescent dye calcein for 30 minutes at room temperature. Cells were then washed and resuspended in a migration buffer containing HBSS with 2% FCS. Cells were treated with buffer alone or with the indicated test peptide (50 μM) for 30 minutes at 37° C. Treated cells (1×10^4 cells) were then placed on the upper side of a ChemoTx® chemotaxis plate (Neuroprobe, Gaithersburg, Md.) membrane (2 μm pore size). Lower wells of the plate were filled with migration buffer alone or with buffer containing fMLP (100 nM), LTB4 (100 nM), or PAF (100 nM). Wells containing 1×10^4 labeled cells were used as standards to calculate migration percentage. Cells were allowed to migrate for 1 hour at 37° C. After incubation, cells on the top of the filter were washed away with PBS. Followed by this, 0.5 mM EDTA was added to the top of the filter for 5 min to detach adherent cells and the membrane was again washed. The plate was then centrifuged at 1000 rpm for 1 min. The filter was removed and the fluorescence was measured in the lower wells (485 nm excitation, 530 nm emission wavelength) using an fMax fluorescence plate reader (Molecular Devices, Sunnyvale, Calif.). Percent migration was determined by dividing the fluorescence of each well by the fluorescence of the standard wells containing 1×10^4 labeled cells. A lesser number of migrated neutrophils in the bottom compartment is indicative of the test peptide being an inhibitor of inflammation.

Residues, ends and D or L forms follow the SMILES beside them. *: point of attachment. Myristoyl = CCCCCCCCCCCCCC(=O)* A value given as a limit tells only on which side of the number the result lay.

As to `CCCCCCCCCCCCCC(=O)O[C@@H]1[C@@H](C)[C@@]2(O)[C@@H](C=C(CO)C[C@@]3(O)C(=O)C(C)=C[C@@H]23)[C@@H]2C(C)(C)[C@]12OC(C)=O` [4-alpha-PMA], the “Mucin secretion as percent of control” value in the series with NHBE cells (reagent 100 nM alone) was determined as 104%.

For `Nc1nc2c(nc(Br)n2[C@@H]2O[C@@H]3COP(O)(=S)O[C@H]3[C@H]2O)c(=O)[nH]1` (some centres unmarked) [Rp-8-Br-cGMP], the “Mucin secretion as percent of control” value in the series with NHBE cells (reagent 1 μM alone) is on record as 100%; in the series on NHBE cells (reagent 1 μM together with PMA 100 nM) it was 123%.

Broadly, the solubility is the concentration that dissolves in the medium under given conditions. Read a high solubility as a readily soluble substance. As to `CCCCCCCCCCCCCC(=O)NCC(=O)N[C@@H](C)C(=O)N[C@@H](CCC(N)=O)C(=O)N[C@@H](Cc1ccccc1)C(=O)N[C@@H](CO)C(=O)N[C@@H](CCCCN)C(=O)N[C@H](C(=O)N[C@@H](C)C(=O)N[C@@H](C)C(=O)N[C@@H](CCCCN)C(=O)NCC(=O)N[C@@H](CCC(=O)O)C(=O)N[C@@H](C)C(=O)N[C@@H](C)C(=O)N[C@@H](C)C(=O)N[C@@H](CCC(=O)O)C(=O)N[C@@H](CCCNC(=N)N)C(=O)N1CCC[C@H]1C(=O)NCC(=O)N[C@@H](CCC(=O)O)C(=O)O)[C@@H](C)O` [SEQ ID NO: 5] (Myristoyl-GAQFSKTAAKGEAAAERPGE-OH; C-terminus assumed), the “% Inhibition Mucin” value in series [1] amounted to 77%. The “% Inhibition EPO” value with HL-60 clone 15 cells turned out to be 33.6%. In addition, the “% Inhibition Lysozyme” value in the series on U937 cells is 99%. The molecule further displayed a solubility in series [2] of under 5000 µg/mL. Also, in the series with human neutrophils, the “Neutrophil Migration (% Inhibition), LTB4” value was found to be 76.8%; the “Neutrophil Migration (% Inhibition), PAF” value came to 88.4%; the “Neutrophil Migration (% Inhibition), fMLP” value stood at 69.1%.

For the molecule `CCCCCCCCCCCCCC(=O)NCC(=O)N[C@@H](C)C(=O)N[C@@H](CCC(N)=O)C(=O)N[C@@H](Cc1ccccc1)C(=O)N[C@@H](CO)C(=O)N[C@@H](CCCCN)C(=O)N[C@H](C(=O)N[C@@H](C)C(=O)N[C@@H](C)C(=O)N[C@@H](CCCCN)C(=O)NCC(=O)N[C@@H](CCC(=O)O)C(=O)N[C@@H](C)C(=O)N[C@@H](C)C(=O)N[C@@H](C)C(=O)N[C@@H](CCC(=O)O)C(=O)O)[C@@H](C)O` [SEQ ID NO: 9, N-myristoyl-GAQFSKTAAKGEAAAE] (Myristoyl-GAQFSKTAAKGEAAAE-OH; C-terminus assumed), the “% Inhibition Mucin” value in series [1] was 68%. In the series with HL-60 clone 15 cells, the “% Inhibition EPO” value turned out to be 30.3%. For the same molecule, in the series on U937 cells, the “% Inhibition Lysozyme” value turned out to be 99%. The molecule further showed a solubility in series [2] of over 2000 µg/mL. Besides, in the series on human neutrophils, the “Neutrophil Migration (% Inhibition), LTB4” value is on record as 90.3%; the “Neutrophil Migration (% Inhibition), PAF” value was 72.7%; the “Neutrophil Migration (% Inhibition), fMLP” value amounted to 84.8%.
